Source: patent US20110301211A1, “ANTAGONISTS OF LYSOPHOSPHATIDIC ACID RECEPTORS” (priority 2008, published 2011)

Legend:
[1] = molecular target: T1, human LPA3 (Homo sapiens, UniProt Q9UBY5); experiment: HLPA3 Ca Flux assay (LPA3 calcium flux assay); assay type: cell-based; details: CHO cells expressing human LPA3, 10 nM LPA
T1 construct: The full-length cDNA fragment for human LPA3 was obtained by PCR from the vector
T1 sequence (Q9UBY5 1-353): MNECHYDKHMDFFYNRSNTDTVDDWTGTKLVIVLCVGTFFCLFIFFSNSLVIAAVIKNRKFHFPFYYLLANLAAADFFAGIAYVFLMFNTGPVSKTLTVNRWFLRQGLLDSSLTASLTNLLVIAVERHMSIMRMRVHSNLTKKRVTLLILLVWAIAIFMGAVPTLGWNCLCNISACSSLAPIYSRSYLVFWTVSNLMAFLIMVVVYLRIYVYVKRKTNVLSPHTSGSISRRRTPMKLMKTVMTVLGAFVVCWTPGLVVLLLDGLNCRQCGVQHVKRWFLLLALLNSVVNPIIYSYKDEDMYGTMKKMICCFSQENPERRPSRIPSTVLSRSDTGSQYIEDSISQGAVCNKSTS
Experimental: A vector containing the human LPA3 receptor cDNA was obtained from the Missouri S&T cDNA Resource Center (www.cdna.org). The full-length cDNA fragment for human LPA3 was obtained by PCR from the vector. The nucleotide sequence of the cloned human LPA3 was determined by sequencing and confirmed to be identical to the published human LPA3 sequence (NCBI accession number NM 012152). The cDNA was cloned into the pcDNA5/FRT expression plasmid and transfected in CHO cells using lipofectamine 2000 (Invitrogen Corp., USA). Clones stably expressing human LPA3 were selected using hygromycin and identified as cells that show Ca-influx in response to LPA.
Human LPA1 or LPA3 expressing CHO cells are seeded at 20,000-45,000 cells per well in a 96-well poly-D-lysine coated plate one or two days before the assay. Prior to the assay, the cells are washed once with PBS and then cultured in serum-free media overnight. On the day of the assay, a calcium indicator dye (Calcium 4, Molecular Devices) in assay buffer (HBSS with Ca^2+ and Mg^2+ and containing 20 mM Hepes and 0.3% fatty-acid free human serum albumin) is added to each well and incubation continued for 1 hour at 37° C. […] Cells are the stimulated by the addition of 10 nM LPA and intracellular Ca^2+ measured using the Flexstation 3 (Molecular Devices). IC50s are determined using Graphpad prism analysis of drug titration curves.

[2] = molecular target: T2, human LPA1 (Homo sapiens, UniProt Q92633); experiment: HLPA1 Ca Flux assay (LPA1 calcium flux assay); assay type: cell-based; details: CHO cells expressing human LPA1, 10 nM LPA
T2 construct: the full-length cDNA for human LPA1 was obtained by PCR of the reverse transcription reaction; expressed in transfected cells
T2 sequence (Q92633 whole entry): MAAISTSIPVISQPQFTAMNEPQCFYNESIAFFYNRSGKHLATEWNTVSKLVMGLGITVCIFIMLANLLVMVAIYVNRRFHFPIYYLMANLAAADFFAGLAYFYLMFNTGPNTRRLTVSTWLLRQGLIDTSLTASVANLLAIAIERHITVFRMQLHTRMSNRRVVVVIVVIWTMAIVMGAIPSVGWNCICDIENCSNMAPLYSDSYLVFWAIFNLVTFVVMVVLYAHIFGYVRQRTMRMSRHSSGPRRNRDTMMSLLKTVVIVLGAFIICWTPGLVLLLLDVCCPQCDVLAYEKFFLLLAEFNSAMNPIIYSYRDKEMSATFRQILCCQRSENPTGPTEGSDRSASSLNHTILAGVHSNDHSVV
Experimental: A 1.1 kb cDNA encoding the human LPA1 receptor was cloned from human lung. Human lung RNA (Clontech Laboratories, Inc. USA) was reverse transcribed using the RETROscript kit (Ambion, Inc.) and the full-length cDNA for human LPA1 was obtained by PCR of the reverse transcription reaction. The nucleotide sequence of the cloned human LPA1 was determined by sequencing and confirmed to be identical to the published human LPA1 sequence (An et al. Biochem. Biophys. Res. Commun. 231:619 (1997). The cDNA was cloned into the pcDNA5/FRT expression plasmid and transfected in CHO cells using lipofectamine 2000 (Invitrogen Corp., USA). Clones stably expressing human LPA1 were selected using hygromycin and identified as cells that show Ca-influx in response to LPA.
Human LPA1 or LPA3 expressing CHO cells are seeded at 20,000-45,000 cells per well in a 96-well poly-D-lysine coated plate one or two days before the assay. Prior to the assay, the cells are washed once with PBS and then cultured in serum-free media overnight. On the day of the assay, a calcium indicator dye (Calcium 4, Molecular Devices) in assay buffer (HBSS with Ca^2+ and Mg^2+ and containing 20 mM Hepes and 0.3% fatty-acid free human serum albumin) is added to each well and incubation continued for 1 hour at 37° C. 10 μl of test compounds in 2.5% DMSO are added to the cells and incubation continued at room temperature for 30 minutes. Cells are the stimulated by the addition of 10 nM LPA and intracellular Ca^2+ measured using the Flexstation 3 (Molecular Devices). IC50s are determined using Graphpad prism analysis of drug titration curves.

[3] = test system: Female C57BL/6 mice; experiment: Mouse carbon tetrachloride (CCl4)-induced liver fibrosis model; assay type: in vivo; details: for collagen deposition in the liver: as compared to the untreated group
Experimental: Female C57BL/6 mice (Harlan, 20-25 g) housed 4/cage are given free access to food and water and allowed to acclimate for at least 7 days prior to test initiation. After the habituation phase, mice receive CCl4 (0.5-1.0 ml/kg body weight) diluted in corn oil vehicle (100 μL volume) via i.p. injection twice a week for 4-6 weeks. (Higazi, A. A. et al., Clin Exp Immunol. 2008 April; 152(1):163-73. Epub 2008 Feb. 14.). Control mice receive an equivalent volume of corn oil vehicle only. Test compound or vehicle is delivered po, ip or sc daily. At the end of the study (4-6 weeks after first i.p. injection of CCl4), mice are sacrificed using inhaled isoflurane and blood is drawn via cardiac puncture for subsequent analysis of ALT/AST levels. The liver is harvested, and one half of the liver is frozen at −80° C. and the other half is fixed in 10% neutral buffered formalin for histological assessment of liver fibrosis using light microscopy (10× magnification). Liver tissue homogenates are analyzed for collagen levels using Sircol (Biocolor Ltd, UK). Fixed Liver tissue is stained using hematoxylin and eosin (H&E) and trichrome and liver fibrosis is determined by quantitative, computer-assisted densitometry of collagen in liver tissue sections using light microscopy. Plasma and liver tissue lysates are also analyzed for concentrations of inflammatory, pro-fibrotic and tissue injury biomarkers including transforming growth factor β1, hyaluronic acid, tissue inhibitor of metalloproteinase-1, matrix matelloproteinase-7, connective tissue growth factor and lactate dehydrogenase activity, using commercially available ELISA. The resulting data are plotted using Graphpad prism and statistical differences between groups determined.

[4] = test system: Female C57BL/6 mice; experiment: Mouse unilateral ureteral obstruction kidney fibrosis model; assay type: in vivo; details: as compared to the untreated group
Experimental: Female C57BL/6 mice (Harlan, 20-25 g) housed 4/cage will be given free access to food and water and allowed to acclimate for at least 7 days prior to test initiation. After the habituation phase, mice undergo unilateral ureteral obstruction (UUO) surgery or sham to left kidney. Briefly, a longitudinal, upper left incision is performed to expose the left kidney. The renal artery is located and 6/0 silk thread is passed between the artery and the ureter. The thread is looped around the ureter and knotted 3 times insuring full ligation of ureter. The kidney is returned to abdomen, the abdominal muscle is sutured and the skin is stapled closed. Mice are returned to their cages and monitored daily for the duration of the experiment. Test compound or vehicle is delivered po, ip or sc daily. The route and frequency of dosing is based on previously determined pharmacokinetic properties. All animals are sacrificed using inhaled isoflurane 4, 8 or 14 days after UUO surgery. […] Kidney tissue homogenates are analyzed for collagen levels using Sircol (Biocolor Ltd, UK). Fixed kidney tissue is also stained using hematoxylin and eosin (H&E) and trichrome and kidney fibrosis is determined by quantitative, computer-assisted densitometry of collagen in […] tissue sections using light microscopy. […] The resulting data are plotted using Graphpad prism and statistical differences between groups determined.

[5] = test system: Female CD-1 mice; experiment: Bleomycin-induced lung fibrosis model in mice; assay type: in vivo; details: acute setting (3 day)
Description: Female CD-1 mice (Harlan, 25-30 g) are housed 4 per cage, given free access to food and water and allowed to acclimate for at least 7 days prior to test initiation. After the habituation phase, mice are lightly anesthetized with isoflurane (5% in 100% O2) and administered with bleomycin sulfate (0.01-5 U/kg, Henry Schein) via intratracheal instillation (Cuzzocrea S et al. Am J Physiol Lung Cell Mol. Physiol. 2007 May; 292(5):L1095-104. Epub 2007 Jan. 12.). Mice are returned to their cages and monitored daily for the duration of the experiment. Test compound or vehicle is delivered po, ip or sc daily. The route and frequency of dosing is based on previously determined pharmacokinetic properties. […] BALF is analyzed for concentrations of inflammatory, pro-fibrotic and tissue injury biomarkers including transforming growth factor β1, hyaluronic acid, tissue inhibitor of metalloproteinase-1, matrix matelloproteinase-7, connective tissue growth factor and lactate dehydrogenase activity, using commercially available ELISA. […] Total cell counts are then obtained using a Hemavet hematology system (Drew Scientific, Wayne, Pa.) and differential cells counts are determined using Shandon cytospin (Thermo Scientific, Waltham, Mass.). […] The data are plotted using Graphpad prism and statistical differences between groups determined.

[6] = test system: pancreatic cancer cell lines; details: cited from earlier work
[7] = test system: highly peritoneal metastatic pancreatic cancer cell line; details: cited from earlier work
[8] = test system: Unilateral ureteral obstruction (UUO; animal model of renal fibrosis) mice; details: LPA1 (−/−) mice: renal fibrosis significantly attenuated; cited from earlier work
[9] = cited from earlier work

COc1ccccc1C(C)OC(=O)Nc1c(C)noc1-c1ccc(-c2ccc(CC(=O)O)cc2)cc1 (centres unmarked) [Compound 6, (4′-{4-[1-(2-Methoxy-phenyl)-ethoxycarbonylamino]-3-methyl-isoxazol-5-yl}-biphenyl-4-yl)-acetic Acid]
IC50 [1]: 1 to 50 µM

COc1ccc(CC(=O)O)cc1-c1ccc(-c2onc(C)c2NC(=O)OC(C)c2ccccc2Cl)cc1 (centres unmarked) [Compound 7, (4′-{4-[1-(2-Chloro-phenyl)-ethoxycarbonylamino]-3-methyl-isoxazol-5-yl}-6-methoxy-biphenyl-3-yl)-acetic Acid]
IC50 [2]: 1 to 50 µM

Cc1noc(-c2ccc(-c3cccc(CC(=O)O)c3)cc2)c1NC(=O)OC(C)c1ccccc1Cl (centres unmarked) [Compound 12, (4′-{4-[1-(2-Chloro-phenyl)-ethoxycarbonylamino]-3-methyl-isoxazol-5-yl}-biphenyl-3-yl)-acetic acid]
IC50 [1]: 0.3 to 1 µM

Cc1noc(-c2ccc(-c3ccc(CC(=O)O)cc3)cc2)c1NC(=O)O[C@H](C)c1ccccc1Cl [Compound 27, (4′-{4-[(R)-1-(2-Chloro-phenyl)-ethoxycarbonylamino]-3-methyl-isoxazol-5-yl}-biphenyl-4-yl)-acetic acid]
effect on collagen deposition compared with pirfenidone ([3]; 30 mg/kg, po, qd): same effect on collagen deposition as pirfenidone
collagen deposition in the liver [3]: significantly reduced
reduction of kidney fibrosis [4]: at least 20%
tissue inhibitor of metalloproteinase-1 (TIMP-1; pro-fibrotic marker) concentrations in BALF [5]: significantly reduced

Cc1noc(-c2ccc(-c3ccc(CC(=O)O)cc3)cc2)c1NC(=O)O[C@H](C)c1ccccc1 [Compound 37]
collagen deposition in the liver [3]: significantly reduced
reduction of kidney fibrosis [4]: 55%
tissue inhibitor of metalloproteinase-1 (TIMP-1; pro-fibrotic marker) concentrations in BALF [5]: reduced

COc1ccc(C(C)OC(=O)Nc2c(C)noc2-c2ccc(-c3ccc(CC(=O)O)cc3)cc2)c(F)c1 (centres unmarked) [Compound 40, (4′-{4-[1-(2-Fluoro-4-methoxy-phenyl)-ethoxycarbonylamino]-3-methyl-isoxazol-5-yl}-biphenyl-4-yl)-acetic acid]
IC50 [2]: 1 to 50 µM

Cc1noc(-c2ccc(-c3cccc(CC(=O)O)c3)cc2)c1NC(=O)O[C@H](C)c1ccccc1 [Compound 43, {4′-[3-Methyl-4-((R)-1-phenyl-ethoxycarbonylamino)-isoxazol-5-yl]-biphenyl-3-yl}-acetic Acid]
IC50 [2]: 0.3 to 1 µM

Cc1noc(-c2ccc(-c3ccc(CC(=O)NCCS(=O)(=O)O)cc3)cc2)c1NC(=O)O[C@H](C)c1ccccc1 [Compound 67, 2-(2-{4′-[3-Methyl-4-((R)-1-phenyl-ethoxycarbonylamino)-isoxazol-5-yl]-biphenyl-4-yl}-acetylamino)-ethanesulfonic Acid]
IC50 [2]: < 0.3 µM

Cc1noc(-c2ccc(CSCCC(=O)O)cc2)c1NC(=O)OC(C)c1ccccc1Cl (centres unmarked) [Ki16425]
in vitro migration in response to LPA and peritoneal fluid (ascites) from pancreatic cancer patients [6]: effectively blocked
LPA-induced and ascites-induced invasion activity [7]: blocked
development of renal fibrosis in UUO mice [8]: closely resembled the LPA1 (−/−) mice
metastasis to bone in vivo [9]: inhibit
